Measurements taken from patent US10618929B2, “3-substituted 5-amino-6H-thiazolo[4,5-D]pyrimidine-2, 7-dione compounds for the treatment and prophylaxis of virus infection” (Hoffmann-La Roche Inc., priority 2014, dated 2020).

test system: human hepatocytes; assay: Metabolic conversion of prodrugs to active forms in human hepatocytes; assay type: in vitro ADME; conditions: active metabolites Example 1-A, Example 14-A and penciclovir, respectively
Description: A study was undertaken to evaluate the metabolic conversion of prodrugs, formula (II) or formula (IIa), to compounds of formula (I) or formula (Ia) of the present invention. The produgs, formula (II) or formula (IIa), can be metabolized to the active compound of formula (I) or formula (Ia) and other compounds of the invention in the body if they are served as prodrugs. Hepatocytes are often used to assess the degree of metabolic conversion of prodrugs in the body of animal or human. A study was undertaken to evaluate the metabolic conversion of prodrugs, Example 2-A, Example 3-A, Example 4-A, Example 16-A and Example 17-A, to the corresponding active forms, Example 1-A and Example 14-A, in the presence of human hepatocytes. The formation of active forms, Example 1-A and Example 14-A, were monitored in the study. For comparison, the metabolic conversion of famciclovir to penciclovir was also assessed. Cryopreserved hepatocytes plating medium (Cat. #: PY-HMD-01) was purchased from RILD Research Institute for Liver Diseases (Shanghai) Co. Ltd. Cryopreserved human hepatocyte (Cat. #: X008005, Lot #:VRR) was purchased from In Vitro Technologies (Baltimore, Md.). The stock hepatocyte suspension was prepared from cryopreserved hepatocytes in plating medium at the concentration of 1.8×10^6 cells/mL. […] Reaction suspensions were prepared in 24-well cell culture plate by mixing 200 μL of hepatocytes suspension (Cyno or human) and 200 μL of working solution. The final incubation contained 0.9×10^6 cells/mL and 50 μM compound. The above mixtures were incubated at 37° C. in a humidified 5% CO2 atmosphere, with a 150 rpm shaking. After 180 min of incubation, 200 μL of the incubation mixture was transferred to 1.5 mL tube and quenched with 400 μL stop solution (ice-cold acetonitrile with 0.2 μM Tolbutamide as internal standard). The samples were centrifuged at 12000 rpm for 10 minutes and the resultant supernatants were subjected to LC-MS/MS analysis. The calibration curves were prepared in the following way. To a 200 μL of cell suspension (cell density of 1.8 million cells/mL), 198 μL of hepatocyte plating medium and 2 μL of the appropriate concentration of the compound in DMSO were added. Samples were mixed thoroughly and 200 μL of the mixture was transferred to 400 uL of the stop solution (see above). […] The compounds were quantified on an API5500 […] instrument in the ESI-Positive MRM mode.

| Structure (SMILES) | Metabolic conversion of prodrug to active metabolite |
| --- | --- |
| CCC(O)[C@@H]1C[C@@H](O)[C@H](n2c(=O)sc3cnc(N)nc32)O1 (single isomer, unassigned) [Example 2-A] | metabolized to yield the corresponding active metabolites |
| CCC(O)[C@@H]1C[C@@H](OC(C)=O)[C@H](n2c(=O)sc3cnc(N)nc32)O1 (single isomer, unassigned) [Example 3-A] | metabolized to yield the corresponding active metabolites |
| CCC(OC(C)=O)[C@@H]1C[C@@H](O)[C@H](n2c(=O)sc3cnc(N)nc32)O1 (single isomer, unassigned) [Example 4-A] | metabolized to yield the corresponding active metabolites |
| CC(=O)OC(C1CC1)[C@@H]1C[C@@H](O)[C@H](n2c(=O)sc3cnc(N)nc32)O1 (single isomer, unassigned) [Example 16-A] | metabolized to yield the corresponding active metabolites |
| Nc1ncc2sc(=O)n([C@@H]3O[C@H](C(O)C4CC4)C[C@H]3O)c2n1 (single isomer, unassigned) [Example 17-A] | metabolized to yield the corresponding active metabolites |
| CC(=O)OCC(CCn1cnc2cnc(N)nc21)COC(C)=O [Famciclovir, famciclovir, reference compound] | metabolized to yield the corresponding active metabolites |

test system: murine peripheral blood mononuclear cells (PBMC); assay: In vitro cytokine induction in murine PBMC (multiplex assay); conditions: 2 to 10 μM, 24 hours, supernatant, dose-dependent
Description: 50 μL of cell culture medium was collected and analyzed with a 36plex Procarta multiplex kit (ebioscience EPX360-26092-901, eBioscience), which measured the levels of 15 cytokine analytes, following the manufacturer's instruction.

| Structure (SMILES) | Cytokine induction in murine PBMC |
| --- | --- |
| CCC(O)[C@@H]1C[C@@H](O)[C@H](n2c(=O)sc3c(=O)[nH]c(N)nc32)O1 (single isomer, unassigned) [Example 1-A] | high levels of IFNα, IP10, TNFα, and IL-6 were found induced |
